Structures can show the parent of a compound that is named as a salt. Where two headings read alike, the source gives them in different places.
How the values were obtained:
human LTA4 hydrolase = molecular target: T1, human LTA4 hydrolase (Homo sapiens, UniProt P09960); assay: LTA4H Enzyme assay (cleavage of Arg-AMC, fluorescence); assay type: biochemical
T1 sequence (P09960 1-611): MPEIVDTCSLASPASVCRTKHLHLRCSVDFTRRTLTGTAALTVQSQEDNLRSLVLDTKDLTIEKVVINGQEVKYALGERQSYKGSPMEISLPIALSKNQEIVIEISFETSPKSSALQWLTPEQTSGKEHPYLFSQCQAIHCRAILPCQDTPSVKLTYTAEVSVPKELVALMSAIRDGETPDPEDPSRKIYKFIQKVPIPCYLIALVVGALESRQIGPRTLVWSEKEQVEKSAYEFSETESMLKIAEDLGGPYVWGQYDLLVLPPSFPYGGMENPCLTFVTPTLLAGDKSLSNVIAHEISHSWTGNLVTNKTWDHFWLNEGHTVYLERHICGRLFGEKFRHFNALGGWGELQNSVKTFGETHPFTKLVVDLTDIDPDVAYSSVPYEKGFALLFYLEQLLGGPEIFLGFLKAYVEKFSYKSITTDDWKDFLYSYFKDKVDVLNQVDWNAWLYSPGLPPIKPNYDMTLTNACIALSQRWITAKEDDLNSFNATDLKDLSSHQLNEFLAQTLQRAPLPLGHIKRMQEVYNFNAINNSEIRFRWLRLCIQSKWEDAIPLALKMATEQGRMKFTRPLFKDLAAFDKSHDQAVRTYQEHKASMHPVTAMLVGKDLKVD
In short: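 Aminomethylcoumarin release measured fluorimetrically (380/460 nm) after 1 h at room temperature. Reaction: 1 nM final enzyme, 50 μM final Arg-AMC and compound in Tris-HCl pH 7.5 with 100 mM KCl and 0.5% BSA.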

[1] = tested on: synthesis of LTB4 in human whole blood; assay: human whole blood (HWB) assay, LTB4 production inhibition after calcimycin stimulation; assay type: cell-based; conditions: heparinized human whole blood, calcimycin 20 μM, plasma LTB4 by HTRF
Protocol: The compounds of the invention are additionally tested in a human whole blood (HWB) assay to determine their ability to inhibit the synthesis of LTB4 in a cellular system. Compounds are combined with heparinized human whole blood and incubated for 15 minutes at 37° C. Calcimycin (20 μM final, prepared in phosphate-buffered saline, pH 7.4) is then added and the mixture is incubated for another 30 minutes at 37° C. The samples are centrifuged for 5 min at low speed (1500×g) and the plasma layer is removed. Plasma LTB4 concentrations are then measured using an antibody-based homogenous time-resolved fluorescence method (CisBio, Bedford, Mass.). In general, the preferred potency range (IC50) of compounds in the HWB assay is between 10 nM to 10 μM, the more preferred potency range is 10 nM to 1 μM, and the most preferred potency range is 10 nM to 100 nM.

[2] = LTA4H Enzyme 1 nM, Arg-AMC substrate 50 μM, room temperature 1 h, fluorescence, read-out: IC50 values of LTA4H Enzyme assay

Compound | IC50 (human LTA4 hydrolase) [nM] | IC50 [1] [nM] | IC50 (human LTA4 hydrolase; [2]) [nM]
O=C(O)C1(c2ccccc2)CCN(Cc2ccc([C@H]3COc4cccnc4O3)cc2)CC1 [Example 294, 1-[(S)-4-(2,3-Dihydro-[1,4]dioxino[2,3-b]pyridin-3-yl)-benzyl]-4-phenyl-piperidine-4-carboxylic acid] | 5.8 | 1300 | 
CC(=O)N[C@H]1[C@@H]2CN(Cc3ccc([C@H]4COc5cccnc5O4)cc3)C[C@@H]21 [Example 250, N-{(1α,5α,6α)-3-[(S)-4-(2,3-Dihydro-[1,4]dioxino[2,3-b]pyridin-3-yl)-benzyl]-3-aza-bicyclo[3.1.0]hex-6-yl}-acetamide] |  | 84 | 0.56
CCOC(=O)c1nnc2n1CCN(Cc1ccc([C@H]3COc4cccnc4O3)cc1)C2 [Example 240, 7-[(S)-4-(2,3-dihydro-[1,4]dioxino[2,3-b]pyridin-3-yl)-benzyl]-5,6,7,8-tetrahydro-[1,2,4]triazolo[4,3-a]pyrazine-3-carboxylic acid ethyl ester] |  | 140 | 0.56
O=C(NC[C@@H]1CCCO1)C1CCN(Cc2ccc([C@H]3COc4cccnc4O3)cc2)CC1 [Example 287, 1-[(S)-4-(2,3-Dihydro-[1,4]dioxino[2,3-b]pyridin-3-yl)-benzyl]-piperidine-4-carboxylic acid [(S)-1-(tetrahydro-furan-2-yl)methyl]-amide] |  | 55 | 0.19
CC(C)(C(=O)O)C1CCN(Cc2ccc([C@H]3COc4ccccc4O3)cc2)CC1 [Example 229, 2-{1-[(S)-4-(2,3-Dihydro-benzo[1,4]dioxin-2-yl)-benzyl]-piperidin-4-yl}-2-methyl-propionic acid formate salt] |  | 290 | 3.85
CN(Cc1ccc([C@H]2COc3ccccc3O2)cc1)C(C)(C)C [Example 81, N-{4-[(2S)-2,3-dihydro-1,4-benzodioxin-2-yl]benzyl}-N,2-dimethylpropan-2-amine] |  | 81 | 0.31
CC(C)(O)C(=O)NCC1CCN(Cc2ccc([C@H]3COc4cccnc4O3)cc2)CC1 [Example 262, N-{1-[(S)-4-(2,3-Dihydro-[1,4]dioxino[2,3-b]pyridin-3-yl)-benzyl]-piperidin-4-ylmethyl}-2-hydroxy-2-methyl-propionamide] |  | 170 | 0.51
CC(=O)N1C[C@@H]2CC[C@H]1CN2Cc1ccc([C@H]2COc3cccnc3O2)cc1 [Example 264, 1-{(1S,4S)-5-[(S)-4-(2,3-Dihydro-[1,4]dioxino[2,3-b]pyridin-3-yl)-benzyl]-2,5-diaza-bicyclo[2.2.2]oct-2-yl}-ethanone] |  | 17 | 0.09
NC(=O)CN1CCCC12CCN(Cc1ccc([C@H]3COc4ccccc4O3)cc1)C2 (stereo partly drawn) [Example 123, 2-(7-{4-[(2S)-2,3-dihydro-1,4-benzodioxin-2-yl]benzyl}-1,7-diazaspiro[4.4]non-1-yl)acetamide] |  | 312 | 0.73
c1cnc2c(c1)OCC(c1ccc(CN3CCOCC3)cc1)O2 (racemic) [Example 18, 3-[4-(morpholin-4-ylmethyl)phenyl]-2,3-dihydro[1,4]dioxino[2,3-b]pyridine] |  | 176 | 1.14
O=C(O)CCCC1CCN(Cc2ccc(C3COc4ccccc4O3)cc2)CC1 (racemic) [Example 26, 4-{1-[4-(2,3-dihydro-1,4-benzodioxin-2-yl)benzyl]piperidin-4-yl}butanoic acid] |  | 308 | 0.43
CC(C)(O)C(=O)NC1CCN(Cc2ccc([C@H]3COc4ccccc4O3)cc2)CC1 [Example 220, N-(1-{4-[(2S)-2,3-dihydro-1,4-benzodioxin-2-yl]benzyl}piperidin-4-yl)-2-hydroxy-2-methylpropanamide] |  | 91 | 0.47
CC(c1ccc([C@H]2COc3ccccc3O2)cc1)N1CCC(C(=O)O)CC1 (stereo partly drawn) [Example 227, 1-{1-[(S)-4-(2,3-dihydro-benzo[1,4]dioxin-2-yl)-phenyl]-ethyl}-piperidine-4-carboxylic acid] |  | 307 | 1.4
OCC1CCCN(Cc2ccc([C@H]3COc4ccccc4O3)cc2)C1 (stereo partly drawn) [Example 69, (1-{4-[(2S)-2,3-dihydro-1,4-benzodioxin-2-yl]benzyl}piperidin-3-yl)methanol] |  | 165 | 0.6
OC1CCN(Cc2ccc([C@H]3COc4cccnc4O3)cc2)CC1 [Example 186, 1-{4-[(3S)-2,3-dihydro[1,4]dioxino[2,3-b]pyridin-3-yl]benzyl}piperidin-4-ol] |  | 36 | 0.24
O=S1(=O)CCCN(Cc2ccc([C@H]3COc4cccnc4O3)cc2)CC1 [Example 275, (S)-3-[4-(1,1-Dioxo-1lambda6-[1,4]thiazepan-4-ylmethyl)-phenyl]-2,3-dihydro-[1,4]dioxino[2,3-b]pyridine] |  | 170 | 0.7
CC(=O)N1CCC(N(C)Cc2ccc([C@H]3COc4ccccc4O3)cc2)CC1 [Example 14, 1-{4-[{4-[(2S)-2,3-dihydro-1,4-benzodioxin-2-yl]benzyl}(methyl)amino]piperidin-1-yl}ethanone] |  | 155 | 0.27
CC(=O)N1CC2CN(Cc3ccc([C@H]4COc5cccnc5O4)cc3)CC2C1 (stereo partly drawn) [Example 270, 1-{5-[(S)-4-(2,3-Dihydro-[1,4]dioxino[2,3-b]pyridin-3-yl)-benzyl]-hexahydro-pyrrolo[3,4-c]pyrrol-2-yl}-ethanone] |  | 35 | 0.14
c1ccc2c(c1)OCC(c1ccc(CN3CCCC3)cc1)O2 (racemic) [Example 1, 1-[4-(2,3-dihydro-1,4-benzodioxin-2-yl)benzyl]pyrrolidine] |  | 179 | 0.38
NC(=O)N1C[C@@H]2C[C@H]1CN2Cc1ccc([C@H]2COc3cccnc3O2)cc1 [Example 268, (1S,4S)-5-[(S)-4-(2,3-Dihydro-[1,4]dioxino[2,3-b]pyridin-3-yl)-benzyl]-2,5-diaza-bicyclo[2.2.1]heptane-2-carboxylic acid amide] |  | 66 | 0.11
c1cnc2c(c1)OC[C@H](c1ccc(CN3CCOCC3)cc1)O2 [Example 204, (S)-3-(4-Morpholin-4-ylmethyl-phenyl)-2,3-dihydro-[1,4]dioxino[2,3-b]pyridine] |  | 95 | 0.15
CC(=O)N1CC[C@@H](NCc2ccc([C@H]3COc4ccccc4O3)cc2)C1 [Example 64, 1-[(3R)-3-({4-[(2S)-2,3-dihydro-1,4-benzodioxin-2-yl]benzyl}amino)pyrrolidin-1-yl]ethanone] |  | 158 | 0.83
O=C(O)c1ccc(C2CN(Cc3ccc([C@H]4COc5ccccc5O4)cc3)C2)cc1 [Example 254, 4-{1-[(S)-4-(2,3-Dihydro-benzo[1,4]dioxin-2-yl)-benzyl]-azetidin-3-yl}-benzoic acid] |  | 84 | 0.24
NC(=O)N[C@@H]1C[C@H]2CC[C@@H](C1)N2Cc1ccc([C@H]2COc3cccnc3O2)cc1 [Example 273, {(exo)-8-[(S)-4-(2,3-Dihydro-[1,4]dioxino[2,3-b]pyridin-3-yl)-benzyl]-8-aza-bicyclo[3.2.1]oct-3-yl}-urea] | 0.16 | 110 | 
O=C(CN1CCCC1=O)NC1CCN(Cc2ccc([C@H]3COc4cccnc4O3)cc2)CC1 [Example 289, N-[1-[[4-[(3S)-2,3-dihydro-[1,4]dioxino[2,3-b]pyridin-3-yl]phenyl]methyl]-4-piperidyl]-2-(2-oxopyrrolidin-1-yl)acetamide] |  | 170 | 0.4
OC[C@H]1CCCC[C@H]1NCc1ccc([C@H]2COc3ccccc3O2)cc1 [Example 87, [(1S,2R)-2-({4-[(2S)-2,3-dihydro-1,4-benzodioxin-2-yl]benzyl}amino)cyclohexyl]methanol] |  | 268 | 0.69
c1cnc2c(c1)OC[C@H](c1ccc(CN3[C@H]4CC[C@@H]3CC4)cc1)O2 [Example 145, (3S)-3-{4-[(1s,4s)-7-azabicyclo[2.2.1]hept-7-ylmethyl]phenyl}-2,3-dihydro[1,4]dioxino[2,3-b]pyridine] | 0.09 | 28 | 
CC(C)(O)CNC(=O)C1CCN(Cc2ccc([C@H]3COc4cccnc4O3)cc2)CC1 [Example 255, 1-[(S)-4-(2,3-Dihydro-[1,4]dioxino[2,3-b]pyridin-3-yl)-benzyl]-piperidine-4-carboxylic acid (2-hydroxy-2-methyl-propyl)-amide] |  | 76 | 0.17

From US8946203B2, “Benzodioxane inhibitors of leukotriene production” (Boehringer Ingelheim International GmbH, priority 2012, dated 2015)
